Assay [1] concerns the target T1, Tyrosine-protein phosphatase non-receptor type 7 (Homo sapiens, UniProt P35236).
T1 sequence (P35236 whole entry): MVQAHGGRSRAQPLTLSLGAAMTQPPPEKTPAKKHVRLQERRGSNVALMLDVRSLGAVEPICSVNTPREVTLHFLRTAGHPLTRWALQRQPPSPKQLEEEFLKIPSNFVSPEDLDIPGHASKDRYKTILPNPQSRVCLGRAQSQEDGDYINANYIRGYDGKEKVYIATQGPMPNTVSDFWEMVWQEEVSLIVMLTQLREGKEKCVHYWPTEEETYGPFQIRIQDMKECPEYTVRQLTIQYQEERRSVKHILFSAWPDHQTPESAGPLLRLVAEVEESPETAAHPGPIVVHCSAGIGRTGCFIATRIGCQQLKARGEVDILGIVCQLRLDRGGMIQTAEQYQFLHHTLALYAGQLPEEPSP
Kind of assay: inhibitors of human HePTP phosphatase, […], biochemical, absorbance, leukemia target (AID 521). The format is functional.

The next assay concerns the target Oxytocin receptor (Homo sapiens, UniProt P30559). Kind of assay: Fluorescence-based cell-based high throughput dose response assay for potentiators of Oxytocin Receptor (OXTR). [Related pubchem assays: 434985 (Confirmation screen (OXTR potentiators in triplicate)), 2481 (Summary (OXTR potentiators)), 2445 (Primary screen (OXTR potentiators in singlicate))]. The format is functional.

In assay [2] the target is T2, Low molecular weight phosphotyrosine protein phosphatase (Homo sapiens, UniProt P24666).
T2 sequence (P24666 whole entry): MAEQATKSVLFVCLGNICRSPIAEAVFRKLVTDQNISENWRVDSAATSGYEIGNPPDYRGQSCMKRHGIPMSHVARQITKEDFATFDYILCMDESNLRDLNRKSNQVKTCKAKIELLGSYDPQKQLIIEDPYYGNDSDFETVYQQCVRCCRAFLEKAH
Kind of assay: LMPTP phosphatase inhibitors, colorimetric pNPP readout, dose response, orthogonal assay, biochemical, absorbance, pNPP substrate, LMPTP-A isoform, set 2 (AID 743308). The format is functional.

Assay [3] deals with T2, Low molecular weight phosphotyrosine protein phosphatase. Kind of assay: LMPTP phosphatase inhibitors, dose response, biochemical, OMFP substrate, fluorescence intensity, set 2 (AID 743307). The format is functional.
Assay [4] can be described thus: HEp-2 cell cytotoxicity, dose response, cytotoxicity control for RSV inhibitor project, HTS (AID 2410). The format is functional. As to conditions: human respiratory syncytial virus.
Assay [5] in a line: Luminescence Cell-Based Dose Retest to Confirm Inhibitors of Cancer Stem Cells. [Related pubchem assays (depositor defined):AID2717, AID2721]. The format is functional. As to conditions: Homo sapiens.
Assay [6] deals with Aryl hydrocarbon receptor (Homo sapiens, UniProt P35869). Kind of assay: Luminescence-based cell-based high throughput dose response assay for activators of the Aryl Hydrocarbon Receptor (AHR). [Related pubchem assays: 2796 (Primary screen (AHR activators in singlicate)), 2845 (Confirmation screen (AHR activators in triplicate)), 434939 (Counterscreen (PXR activators in triplicate)), 2804 (Summary (AHR activators))]. The format is ADME.
Aryl hydrocarbon receptor, sequence (P35869 whole entry): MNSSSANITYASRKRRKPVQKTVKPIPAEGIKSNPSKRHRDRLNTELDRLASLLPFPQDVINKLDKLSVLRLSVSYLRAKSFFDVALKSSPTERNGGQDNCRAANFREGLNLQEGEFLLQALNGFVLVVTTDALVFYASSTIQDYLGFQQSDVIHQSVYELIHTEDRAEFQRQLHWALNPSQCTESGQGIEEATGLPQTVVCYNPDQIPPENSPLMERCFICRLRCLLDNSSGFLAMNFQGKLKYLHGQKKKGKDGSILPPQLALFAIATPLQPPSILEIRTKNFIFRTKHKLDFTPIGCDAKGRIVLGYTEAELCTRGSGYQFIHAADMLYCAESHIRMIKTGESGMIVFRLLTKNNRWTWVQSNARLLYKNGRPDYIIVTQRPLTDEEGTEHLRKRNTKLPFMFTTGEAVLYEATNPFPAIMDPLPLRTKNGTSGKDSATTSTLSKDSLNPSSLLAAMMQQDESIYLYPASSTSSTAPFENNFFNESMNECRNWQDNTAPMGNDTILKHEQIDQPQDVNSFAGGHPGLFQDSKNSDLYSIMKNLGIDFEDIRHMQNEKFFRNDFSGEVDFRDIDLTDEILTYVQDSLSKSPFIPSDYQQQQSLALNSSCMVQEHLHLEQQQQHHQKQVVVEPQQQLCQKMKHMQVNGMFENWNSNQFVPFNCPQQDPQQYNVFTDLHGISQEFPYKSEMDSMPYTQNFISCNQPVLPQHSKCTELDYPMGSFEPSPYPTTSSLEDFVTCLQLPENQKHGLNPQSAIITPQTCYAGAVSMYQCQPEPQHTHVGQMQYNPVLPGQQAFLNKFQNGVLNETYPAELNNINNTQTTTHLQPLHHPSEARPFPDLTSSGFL

The next assay deals with Cytochrome P450 2C9 (Homo sapiens, UniProt P11712). The settings on record: Potency.
In another assay the target is Cytochrome P450 2C19 (Homo sapiens, UniProt P33261). Kind of assay: qHTS Assay for Inhibitors and Substrates of Cytochrome P450 2C19. [Related pubchem assays: 410 ]. The format is ADME. The settings on record: read-out: Potency. Background: qHTS replaces the single test concentration by a dilution series.
Cytochrome P450 2C19, sequence (P33261 whole entry, the tested form may be a part): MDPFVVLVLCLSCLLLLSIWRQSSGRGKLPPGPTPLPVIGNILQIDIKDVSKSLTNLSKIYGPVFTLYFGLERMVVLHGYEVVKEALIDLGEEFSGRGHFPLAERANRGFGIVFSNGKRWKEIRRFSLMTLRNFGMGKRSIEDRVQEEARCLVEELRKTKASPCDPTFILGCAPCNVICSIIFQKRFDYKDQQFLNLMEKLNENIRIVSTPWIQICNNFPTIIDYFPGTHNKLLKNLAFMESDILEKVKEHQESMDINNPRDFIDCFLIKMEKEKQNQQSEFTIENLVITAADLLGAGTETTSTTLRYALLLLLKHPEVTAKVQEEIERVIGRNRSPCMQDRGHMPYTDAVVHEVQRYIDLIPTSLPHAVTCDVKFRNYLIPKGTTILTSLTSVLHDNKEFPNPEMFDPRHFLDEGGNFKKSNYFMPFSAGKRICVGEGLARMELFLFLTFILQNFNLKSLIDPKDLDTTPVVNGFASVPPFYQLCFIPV
The target in assay [7] is T3, Carboxy-terminal domain RNA polymerase II polypeptide A small phosphatase 1 (Homo sapiens, UniProt Q9GZU7).
T3 sequence (Q9GZU7 whole entry): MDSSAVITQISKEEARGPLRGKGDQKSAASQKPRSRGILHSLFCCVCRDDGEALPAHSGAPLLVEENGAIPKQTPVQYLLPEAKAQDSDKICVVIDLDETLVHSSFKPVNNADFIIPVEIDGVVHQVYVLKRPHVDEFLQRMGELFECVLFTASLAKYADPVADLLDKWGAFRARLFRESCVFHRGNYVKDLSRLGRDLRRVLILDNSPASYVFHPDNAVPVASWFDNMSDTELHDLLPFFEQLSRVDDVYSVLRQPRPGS
Kind of assay: inhibitors of CTDSP1, concentration-response testing, biochemical assay, absorbance-based, actives from ultra-high-throughput screening (AID 540297). The format is functional.

For assay [8], the target named is T4, Induced myeloid leukemia cell differentiation protein Mcl-1 (Homo sapiens, UniProt Q07820). The format is functional.
T4 sequence (Q07820 whole entry): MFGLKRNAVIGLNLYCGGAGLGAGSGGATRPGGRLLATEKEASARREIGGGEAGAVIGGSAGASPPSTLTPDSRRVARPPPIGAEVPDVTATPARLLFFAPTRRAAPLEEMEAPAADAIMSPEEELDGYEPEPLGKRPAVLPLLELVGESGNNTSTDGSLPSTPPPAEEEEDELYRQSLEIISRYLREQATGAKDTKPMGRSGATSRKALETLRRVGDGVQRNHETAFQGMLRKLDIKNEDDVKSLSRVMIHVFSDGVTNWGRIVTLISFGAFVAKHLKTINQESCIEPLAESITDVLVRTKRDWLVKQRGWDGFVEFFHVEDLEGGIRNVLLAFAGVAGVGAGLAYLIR
In a further assay the target is Bcl-2-like protein 1 (Homo sapiens, UniProt Q07817). Kind of assay: BCL-XL inhibitors, dose response, selectivity assay for MCL1 inhibitor project, biochemical, fluorescence polarization, 1536-well (AID 2218). For orientation: Polarisation of emitted light reports the rotation of a fluorescent probe.
Bcl-2-like protein 1, sequence (Q07817 whole entry): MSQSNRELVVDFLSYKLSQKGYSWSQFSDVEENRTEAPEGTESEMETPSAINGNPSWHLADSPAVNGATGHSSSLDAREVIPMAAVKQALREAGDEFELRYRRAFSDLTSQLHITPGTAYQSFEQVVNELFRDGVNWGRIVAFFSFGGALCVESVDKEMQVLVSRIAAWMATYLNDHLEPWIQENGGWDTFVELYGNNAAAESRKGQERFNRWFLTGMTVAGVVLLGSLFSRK
Assay [9] has as its target T4, Induced myeloid leukemia cell differentiation protein Mcl-1. Kind of assay: MCL1-BIM BH3 interaction inhibitors, dose response, biochemical, fluorescence polarization, BIM-BH3 peptide, 1536-well (AID 2217).
Assay [10] deals with T5, Bcl-2-related protein A1 (Mus musculus, UniProt Q07440).
T5 sequence (Q07440 whole entry): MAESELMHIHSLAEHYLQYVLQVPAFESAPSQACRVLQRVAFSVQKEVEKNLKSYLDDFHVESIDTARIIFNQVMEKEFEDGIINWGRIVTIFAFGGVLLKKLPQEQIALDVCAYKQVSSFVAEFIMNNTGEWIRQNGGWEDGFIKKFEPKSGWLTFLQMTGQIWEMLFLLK
Kind of assay: Bfl-1 inhibitors blocking BH3 peptide binding, confirmation, biochemical, TR-FRET, mouse Bfl-1 (AID 621).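 Also: TR-FRET binding of GST-Bfl-1 to FITC-labelled Bid peptide via terbium antibody.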 On the technique in general: TR-FRET usually uses a lanthanide donor and a delayed reading to cut background.

Assay [11] has as its target Glyceraldehyde-3-phosphate dehydrogenase (Homo sapiens, UniProt P04406).
Assay [12] deals with T5, Bcl-2-related protein A1. Kind of assay: Bfl-1 binding inhibitors, SAR follow-up, biochemical, fluorescence polarization (AID 1070).
Assay [13] concerns the target Sphingosine 1-phosphate receptor 2 (Homo sapiens, UniProt O95136). Kind of assay: Dose Response Cell Based Assay for Agonists of the S1P2 Receptor of Purchased Analogues. [Related pubchem assays: 729, 843, 854, 736 ]. The format is functional.
The target in assay [14] is Mitogen-activated protein kinase 10 (Homo sapiens, UniProt P53779). Kind of assay: Dose response biochemical screening assay for inhibitors of c-Jun N-Terminal Kinase 3 (JNK3). [Related pubchem assays: 746 ].
Mitogen-activated protein kinase 10, sequence (P53779 whole entry): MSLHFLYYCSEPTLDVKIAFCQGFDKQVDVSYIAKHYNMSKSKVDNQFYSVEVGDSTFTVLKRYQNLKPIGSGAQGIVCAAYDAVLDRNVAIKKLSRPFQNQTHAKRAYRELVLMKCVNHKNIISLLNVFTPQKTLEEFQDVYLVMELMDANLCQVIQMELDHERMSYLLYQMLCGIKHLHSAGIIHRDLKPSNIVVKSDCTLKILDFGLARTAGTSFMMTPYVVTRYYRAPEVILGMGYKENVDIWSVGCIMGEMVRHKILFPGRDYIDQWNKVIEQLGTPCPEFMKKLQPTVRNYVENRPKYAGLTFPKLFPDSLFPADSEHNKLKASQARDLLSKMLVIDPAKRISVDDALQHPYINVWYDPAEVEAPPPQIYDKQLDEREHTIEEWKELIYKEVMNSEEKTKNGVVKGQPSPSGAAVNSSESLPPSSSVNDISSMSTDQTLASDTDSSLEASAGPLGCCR
For a further assay, the target named is Protein Tat (Human immunodeficiency virus type 1 group M subtype B (isolate HXB2)(HIV-1), UniProt P04608). The format is functional.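 Also: tat binding to TAR RNA read out by fluorescence polarization.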
Protein Tat, sequence (P04608 whole entry): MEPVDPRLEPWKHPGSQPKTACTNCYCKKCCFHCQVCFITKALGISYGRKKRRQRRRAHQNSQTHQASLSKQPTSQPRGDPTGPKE
Assay [15] addresses Bifunctional protein GlmU (Mycobacterium tuberculosis, UniProt P9WMN3). Kind of assay: Inhibitors of Mycobacterial Glucosamine-1-phosphate acetyl transferase (GlmU). Secondary screen. Details: species or system Mycobacterium tuberculosis H37Rv.
Assay [16] concerns the target Dual specificity protein phosphatase 3 (Homo sapiens, UniProt P51452). Kind of assay: VHR phosphatase inhibition, dose response, selectivity assay for STEP inhibitor project, biochemical (AID 602374). The format is functional. As to conditions: read-out: IC50_Mean.
For assay [17], the target named is Tyrosine-protein phosphatase non-receptor type 5 (Homo sapiens, UniProt P54829). Kind of assay: STEP phosphatase inhibitors, confirmation, biochemical, fluorescence intensity, uHTS hits (AID 602372). The format is functional. The settings on record: read-out: IC50_Mean.
In assay [18] the target is Tyrosine-protein phosphatase non-receptor type 11 (Homo sapiens, UniProt Q06124). Kind of assay: SHP2 phosphatase inhibition, dose response, selectivity assay for STEP inhibitor project, biochemical (AID 602367). The format is functional. As to conditions: read-out: IC50_Mean.
Tyrosine-protein phosphatase non-receptor type 11, sequence (Q06124 whole entry): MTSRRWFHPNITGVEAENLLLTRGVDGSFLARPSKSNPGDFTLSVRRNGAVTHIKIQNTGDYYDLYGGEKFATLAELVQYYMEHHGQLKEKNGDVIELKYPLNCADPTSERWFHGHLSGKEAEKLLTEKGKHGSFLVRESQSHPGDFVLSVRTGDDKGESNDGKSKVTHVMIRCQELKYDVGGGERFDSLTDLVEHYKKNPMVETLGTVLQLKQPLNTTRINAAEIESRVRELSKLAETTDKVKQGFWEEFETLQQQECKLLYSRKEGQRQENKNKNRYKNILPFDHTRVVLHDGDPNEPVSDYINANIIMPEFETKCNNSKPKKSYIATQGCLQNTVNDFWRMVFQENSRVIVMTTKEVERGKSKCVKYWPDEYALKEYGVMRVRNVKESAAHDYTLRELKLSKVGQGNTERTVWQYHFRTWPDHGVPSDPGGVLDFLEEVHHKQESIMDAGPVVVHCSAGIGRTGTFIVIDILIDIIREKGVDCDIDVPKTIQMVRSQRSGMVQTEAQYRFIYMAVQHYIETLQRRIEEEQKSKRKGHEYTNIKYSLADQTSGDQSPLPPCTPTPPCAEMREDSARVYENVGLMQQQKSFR
Assay [19] addresses T6, Tyrosine-protein phosphatase non-receptor type 22 (Homo sapiens, UniProt Q9Y2R2).
T6 sequence (Q9Y2R2 whole entry): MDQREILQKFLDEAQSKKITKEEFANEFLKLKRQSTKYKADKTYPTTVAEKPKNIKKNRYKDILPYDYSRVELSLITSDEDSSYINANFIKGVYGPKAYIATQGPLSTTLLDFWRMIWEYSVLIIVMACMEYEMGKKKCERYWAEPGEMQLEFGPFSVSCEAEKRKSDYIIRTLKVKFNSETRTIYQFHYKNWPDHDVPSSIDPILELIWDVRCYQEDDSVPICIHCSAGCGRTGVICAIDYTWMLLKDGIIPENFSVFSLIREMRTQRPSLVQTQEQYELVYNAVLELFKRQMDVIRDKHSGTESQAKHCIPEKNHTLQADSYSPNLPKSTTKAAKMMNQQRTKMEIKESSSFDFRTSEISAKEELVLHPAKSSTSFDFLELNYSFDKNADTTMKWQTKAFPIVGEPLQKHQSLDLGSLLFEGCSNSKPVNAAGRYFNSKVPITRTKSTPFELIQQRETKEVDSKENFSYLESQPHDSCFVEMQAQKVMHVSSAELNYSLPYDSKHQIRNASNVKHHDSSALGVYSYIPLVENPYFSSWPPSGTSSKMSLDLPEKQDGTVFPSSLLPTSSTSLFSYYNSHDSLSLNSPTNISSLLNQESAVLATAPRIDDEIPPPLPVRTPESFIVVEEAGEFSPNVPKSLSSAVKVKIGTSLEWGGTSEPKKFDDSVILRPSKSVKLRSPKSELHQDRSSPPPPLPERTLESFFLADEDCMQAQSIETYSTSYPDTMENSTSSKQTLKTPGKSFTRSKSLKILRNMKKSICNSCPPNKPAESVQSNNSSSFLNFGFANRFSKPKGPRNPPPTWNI
Kind of assay: PTPN22 phosphatase inhibition, dose response, selectivity assay for STEP inhibitor project, biochemical (AID 624241). The format is functional.

SMILES strings stand for the structures. Active and inactive are the calls of the source.

The values below come from ChEMBL document CHEMBL1201862, “PubChem BioAssay data set” (2004).

Bifunctional protein GlmU, sequence (P9WMN3 whole entry): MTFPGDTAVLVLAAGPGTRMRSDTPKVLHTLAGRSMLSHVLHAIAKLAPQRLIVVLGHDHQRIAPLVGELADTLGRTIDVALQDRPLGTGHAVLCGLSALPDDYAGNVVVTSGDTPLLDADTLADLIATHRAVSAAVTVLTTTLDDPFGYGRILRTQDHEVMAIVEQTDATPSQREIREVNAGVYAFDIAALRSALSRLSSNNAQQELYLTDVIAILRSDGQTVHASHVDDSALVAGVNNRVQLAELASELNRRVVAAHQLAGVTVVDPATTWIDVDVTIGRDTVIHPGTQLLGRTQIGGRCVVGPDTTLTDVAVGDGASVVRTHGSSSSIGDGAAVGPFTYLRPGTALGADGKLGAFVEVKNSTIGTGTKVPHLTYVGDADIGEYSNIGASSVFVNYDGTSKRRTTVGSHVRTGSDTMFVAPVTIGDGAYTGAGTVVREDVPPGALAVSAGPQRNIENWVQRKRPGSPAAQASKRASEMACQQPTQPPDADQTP
Dual specificity protein phosphatase 3, sequence (P51452 whole entry): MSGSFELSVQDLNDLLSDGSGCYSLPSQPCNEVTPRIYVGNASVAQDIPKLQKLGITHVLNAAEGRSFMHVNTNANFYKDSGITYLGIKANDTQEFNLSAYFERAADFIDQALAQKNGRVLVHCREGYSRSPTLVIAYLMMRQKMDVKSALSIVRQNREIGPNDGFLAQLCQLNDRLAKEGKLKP
Sphingosine 1-phosphate receptor 2, sequence (O95136 whole entry): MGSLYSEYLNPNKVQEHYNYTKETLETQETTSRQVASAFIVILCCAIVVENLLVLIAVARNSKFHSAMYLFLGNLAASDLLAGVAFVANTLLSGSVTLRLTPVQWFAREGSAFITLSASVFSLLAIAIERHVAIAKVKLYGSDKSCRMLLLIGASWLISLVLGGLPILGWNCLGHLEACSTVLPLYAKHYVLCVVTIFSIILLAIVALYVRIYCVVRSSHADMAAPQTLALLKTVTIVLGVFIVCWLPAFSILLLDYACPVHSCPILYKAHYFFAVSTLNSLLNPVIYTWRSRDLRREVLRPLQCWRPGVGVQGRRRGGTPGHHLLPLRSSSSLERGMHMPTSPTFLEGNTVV
Oxytocin receptor, sequence (P30559 whole entry): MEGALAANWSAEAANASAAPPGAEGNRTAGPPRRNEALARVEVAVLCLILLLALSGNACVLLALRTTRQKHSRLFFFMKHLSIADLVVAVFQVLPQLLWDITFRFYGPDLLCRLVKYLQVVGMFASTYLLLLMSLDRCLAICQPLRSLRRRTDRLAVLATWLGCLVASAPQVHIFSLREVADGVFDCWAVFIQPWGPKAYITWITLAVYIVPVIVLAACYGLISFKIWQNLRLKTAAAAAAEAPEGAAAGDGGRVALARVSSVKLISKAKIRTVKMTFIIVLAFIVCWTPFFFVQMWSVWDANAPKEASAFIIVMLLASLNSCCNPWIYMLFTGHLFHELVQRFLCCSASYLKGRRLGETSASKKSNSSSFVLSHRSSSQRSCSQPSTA
Glyceraldehyde-3-phosphate dehydrogenase, sequence (P04406 whole entry): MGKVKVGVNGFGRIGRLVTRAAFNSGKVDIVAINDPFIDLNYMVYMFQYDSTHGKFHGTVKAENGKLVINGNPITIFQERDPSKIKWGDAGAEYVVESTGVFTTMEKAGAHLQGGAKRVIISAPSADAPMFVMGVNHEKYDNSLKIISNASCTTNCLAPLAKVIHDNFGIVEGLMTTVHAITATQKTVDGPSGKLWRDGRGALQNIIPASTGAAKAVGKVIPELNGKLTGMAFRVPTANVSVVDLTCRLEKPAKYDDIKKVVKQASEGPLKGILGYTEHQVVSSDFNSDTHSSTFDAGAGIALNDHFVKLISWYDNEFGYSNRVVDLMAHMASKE

For `Brc1ccc(-c2nnc3sc(CNC4CCCC4)cn23)cc1`, in [1], the IC50 is > 100 µM (not active).
For `Cc1cc(C)n(-c2cc(C(C)(C)C)nc3c(-c4ccc(Cl)cc4)cnn23)n1`, the EC50 on Oxytocin receptor is given as > 29.9 µM (not active).
As to `c1ccc(-c2cc(NCCN3CCOCC3)c3ccccc3n2)cc1`, the IC50 in [2] was 3.28 µM (active); in assay [3], 2.13 µM (active).
On to `COc1cc2c(cc1NC(=O)Nc1ccc(C)cc1)oc1ccccc12`, for which the 50% cytotoxic concentration (CC50) in assay [4] was 26.4 µM (active). In addition, the AC50 in assay [5] is 1.88 µM (active). In assay [6], the EC50 was 1.47 µM (active).
`CC1=C(\C=C/C(C)=C/C=C\C(C)=C\C(=O)Nc2ccc(O)cc2)C(C)(C)CCC1`: the figures for the AC50 at Cytochrome P450 2C9 and on Cytochrome P450 2C19 were 7.94 µM (inconclusive) and 31.6 µM (inconclusive), respectively.
In the case of `O=C(/C=C/c1ccc(Cl)c([N+](=O)[O-])c1)Nc1ccc(N2CCCC2)cc1`, the IC50 is 3.29 µM (active) in [7], > 54 µM (active) in [8], > 109 µM (not active) on Bcl-2-like protein 1 and 20.9 µM (not active) in assay [9].
Regarding `CN1CCN(C2=CC(=O)N(c3ccc(Cl)cc3)C2=O)CC1`, the IC50 (at Bcl-2-related protein A1 [10]; in assay [11]; at Bcl-2-related protein A1 [12]) was > 100 µM (not active) each time.
For the molecule `CCNC(=O)CN(CC)CC(=O)c1cc(C)n(Cc2ccccc2)c1C`, the EC50 in assay [13] is recorded as > 30 µM (not active).
In the case of `COc1cccc(C2=NOC(C(=O)Nc3cc(OC)c(OC)c(OC)c3)C2)c1` (stereo not given), the IC50 in assay [14] was 2.02 µM (active).
As to `Cc1c(C)n(C(=O)CSc2nc3ccccc3[nH]2)c2ccccc12`, the IC50 on Protein Tat was > 100 µM (active); in assay [7] it was 3.37 µM (active); in [15], 38.2 µM (active); in [16], 1.81 µM (active); in assay [17], 9.91 µM (active); in assay [18], 0.603 µM (active). Further, in assay [19], the IC50 is 8.33 µM (active).

By EC50 is commonly meant the concentration at which the effect is half-maximal. A word on the CC50: it is the concentration that lowers cell viability or growth by half.
